Source: patent publication US20240269303A1, “CELL TARGETING CONSTRUCTS AND USES THEREOF” (Research Development Foundation, priority 2022, published 2024)
Square brackets hold non-standard residues; d marks the D form. Peptide text beside a SMILES is read from it. * marks the point of attachment. Dolaproine = CO[C@@H]([C@@H]1CCCN1)[C@@H](C)C(=O)O; Dil = CC[C@H](C)[C@H](NC)[C@@H](CC(=O)O)OC; X1 = C[C@@H](N*)[C@@H](O)c1ccccc1; NMeV = CN[C@H](C(=O)O)C(C)C

What was measured:
HEK293/LGR5 cells = assay: Growth rate inhibition assay (CCK8, 120 h exposure); format: cell-based, human
OVCAR8/EV cells = assay: as above; format: cell-based, human; settings: OVCAR8/EV (LGR5-poor) cells
OVCAR8/LGR5 cells = assay: as above; format: cell-based, human
LGR5 = biological target: T1, LGR5 (Homo sapiens, UniProt O75473); settings: read-out: affinity; cited from earlier work
T1 sequence (O75473 22-907): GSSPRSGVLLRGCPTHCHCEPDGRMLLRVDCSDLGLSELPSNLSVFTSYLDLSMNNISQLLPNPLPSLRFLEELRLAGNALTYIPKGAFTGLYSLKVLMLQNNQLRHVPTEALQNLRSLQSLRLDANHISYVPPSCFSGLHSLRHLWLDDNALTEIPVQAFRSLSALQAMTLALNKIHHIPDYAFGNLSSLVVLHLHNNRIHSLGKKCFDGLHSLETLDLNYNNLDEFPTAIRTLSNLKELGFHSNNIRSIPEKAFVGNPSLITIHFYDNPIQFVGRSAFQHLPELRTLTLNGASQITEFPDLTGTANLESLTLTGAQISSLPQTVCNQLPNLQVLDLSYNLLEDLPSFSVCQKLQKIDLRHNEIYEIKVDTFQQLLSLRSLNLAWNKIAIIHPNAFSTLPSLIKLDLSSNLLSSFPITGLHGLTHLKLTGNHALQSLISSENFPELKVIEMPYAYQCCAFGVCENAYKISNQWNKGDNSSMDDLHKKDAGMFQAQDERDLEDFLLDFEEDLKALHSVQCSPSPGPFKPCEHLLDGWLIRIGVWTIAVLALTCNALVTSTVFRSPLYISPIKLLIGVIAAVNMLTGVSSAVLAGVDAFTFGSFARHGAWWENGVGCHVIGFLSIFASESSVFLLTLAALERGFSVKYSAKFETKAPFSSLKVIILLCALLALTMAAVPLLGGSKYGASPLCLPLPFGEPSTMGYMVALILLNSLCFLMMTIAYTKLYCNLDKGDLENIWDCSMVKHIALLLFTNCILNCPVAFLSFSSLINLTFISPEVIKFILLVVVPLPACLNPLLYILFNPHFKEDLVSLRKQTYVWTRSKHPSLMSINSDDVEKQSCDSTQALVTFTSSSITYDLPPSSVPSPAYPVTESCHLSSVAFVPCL

LGR6 = biological target: T2, LGR6 (Homo sapiens, UniProt Q9HBX8); settings: read-out: affinity; cited from earlier work
T2 sequence (Q9HBX8 25-967): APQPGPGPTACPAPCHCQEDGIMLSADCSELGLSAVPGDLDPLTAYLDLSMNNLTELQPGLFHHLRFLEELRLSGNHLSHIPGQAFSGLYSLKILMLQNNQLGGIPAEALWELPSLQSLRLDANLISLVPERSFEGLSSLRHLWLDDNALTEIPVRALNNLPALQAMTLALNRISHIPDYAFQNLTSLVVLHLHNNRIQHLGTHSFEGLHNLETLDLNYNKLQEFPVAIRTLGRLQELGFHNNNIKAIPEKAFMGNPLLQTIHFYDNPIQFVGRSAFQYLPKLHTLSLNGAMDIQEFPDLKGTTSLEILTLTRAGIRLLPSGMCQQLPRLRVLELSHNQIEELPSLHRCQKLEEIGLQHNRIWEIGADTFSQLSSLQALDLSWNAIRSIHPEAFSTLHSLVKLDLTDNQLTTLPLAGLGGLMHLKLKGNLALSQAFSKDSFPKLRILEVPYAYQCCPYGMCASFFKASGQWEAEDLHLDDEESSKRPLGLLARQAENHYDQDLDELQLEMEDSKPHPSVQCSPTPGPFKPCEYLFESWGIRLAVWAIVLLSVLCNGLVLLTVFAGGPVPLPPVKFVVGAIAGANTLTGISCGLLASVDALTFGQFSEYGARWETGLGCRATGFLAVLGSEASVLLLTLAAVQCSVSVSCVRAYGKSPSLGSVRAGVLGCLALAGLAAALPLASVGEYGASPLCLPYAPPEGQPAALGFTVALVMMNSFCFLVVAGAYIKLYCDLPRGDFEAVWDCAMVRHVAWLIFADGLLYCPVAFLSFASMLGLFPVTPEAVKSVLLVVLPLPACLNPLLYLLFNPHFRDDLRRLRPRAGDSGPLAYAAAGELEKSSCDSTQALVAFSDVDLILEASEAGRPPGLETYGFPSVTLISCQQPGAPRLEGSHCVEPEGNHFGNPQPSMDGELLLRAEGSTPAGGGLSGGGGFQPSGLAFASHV

Q: Which “HEK293/LGR5 cells more resistant than HEK293/EV cells” value (HEK293/LGR5 cells) does the source give for CC[C@H](C)[C@@H]([C@@H](CC(=O)N1CCC[C@H]1[C@H](OC)[C@@H](C)C(=O)N[C@H](C)[C@@H](O)c1ccccc1)OC)N(C)C(=O)[C@@H](NC(=O)[C@@H](NC)C(C)C)C(C)C [free MMAE, Monomethyl auristatin E, reference compound] (H-[NMeV]V[Dil][Dolaproine]-X1) here?
A: 1.6 fold

Q: And the IC50 (OVCAR8/EV cells)?
A: 85 nM

Q: What about the “OVCAR8/LGR5 cells more resistant than OVCAR8/EV cells” value (OVCAR8/LGR5 cells) of the same molecule?
A: 1.5 fold

Q: What about the IC50 (OVCAR8/LGR5 cells; OVCAR8/LGR5 (LGR5-rich) cells, 120 h exposure, CCK8) of the same molecule?
A: 129 nM

Q: What does the source list for “Fu1-Fu2 domain of RSPO1: receptor-binding Fu1-Fu2 domain of human RSPO1”?
A: Kd (LGR5): ~3 nM; Kd (LGR6): ~3 nM
